Experimental data published in patent publication US20120214775A1, “Pharmaceutical Salts of 3-O-(3',3'-Dimethylsuccinyl) Betulinic Acid” (priority 2004, published 2012).
≈ marks a conversion by molar mass, not a printed value. Entries after “also recorded” stand apart in the source; their conditions may differ. Counter-ions that a name gives are not always drawn. Like-named read-outs stand apart in the source and are kept apart here. One block for each compound: values may come before it.

How the values were obtained:
[1] = system: HIV-1 replication in H9 lymphocyte cells; details: cited from earlier work; for T.I.: acutely infected H9 lymphocytes; for therapeutic index (T.I.) / EC50: H9 lymphocyte cells
[2] = Intravenous administration of DSB in rats (reference for bioavailability); type: in vivo; details: rat, plasma, dose 10.4 mg/kg, read-out: AUCINF after intravenous administration
Method: Blood samples were collected by cardiac puncture (n=2 rats/formulation/time point) at the following times: 0.25, 0.5, 1, 2, 4, 6, 12, and 24 h. Bioavailabilities of the oral formulations were calculated as the ratio of the oral dose-adjusted AUCINF assuming proportionality of the dose adjustments to the dose adjusted AUCINF reported after intravenous administration (AUCINF=63.3 μg h/mL) from a study of DSB in rats.

[3] = Water solubility (summary statement); type: physicochemical
[4] = physchem; details: thermodynamic from solid, Equilibrium solubility
[5] = system: HIV-1 NL4-3; test: In vivo anti-HIV efficacy in the SCID-hu Thy/Liv mouse model of HIV infection; details: for implant p24: untreated 440; for antiviral activity against NL4-3 (in words): twice-daily oral gavage at 100 and 150 mg/kg/day, SCID-hu Thy/Liv mice
[6] = physchem; details: 25 °C
[7] = 25° C.
[8] = Equilibrium solubility in selected solvents; details: for solubility thermodynamic at 7 days: organic solvent or mixture, equilibration 7 days
[9] = highest dosage level (150 mg/kg/day), twice-daily oral gavage
[10] = once-daily oral gavage at 100 mg/kg/day

AUC(0-inf) [2]: 63300 ng·h/mL
solubility [3]: ~100 µg/mL (≈ 171 µM)
solubility thermodynamic at 3 days ([4]; saline or isotonic): 1500 µg/mL (≈ 2560 µM)
solubility thermodynamic at 3 days ([4]; water): 35.1 µg/mL (≈ 60 µM)
SMILES: C=C(C)[C@H]1CC[C@]2(C(=O)O)CC[C@@]3(C)[C@H](CC[C@H]4[C@@]5(C)CC[C@H](OC(=O)CC(C)(C)C(=O)O)C(C)(C)[C@H]5CC[C@]43C)[C@H]12 [DSB, 3-O-(3′,3′-dimethylsuccinyl) betulinic acid]
T.I. [1]: more than 970,000

solubility ([6]; pH 9.461, aqueous buffer): 7540 µg/mL
solubility ([6]; pH 10.691, aqueous buffer): 7460 µg/mL
visual solubility ([7]; basic and neutral conditions): visibly soluble
visual solubility ([7]; strongly acid solutions): visually insoluble
Equilibrium solubility ([8]; Deionized Water, equilibration 3 days): >18000 µg/mL
solubility thermodynamic at 7 days ([8]; thermodynamic from solid, Equilibrium solubility, Ethanol, solid may have precipitated on transfer): 25000 µg/mL
solubility thermodynamic at 7 days ([8]; thermodynamic from solid, Equilibrium solubility, Methanol): 37000 µg/mL
solubility thermodynamic at 7 days ([8]; thermodynamic from solid, Equilibrium solubility, PEG 400, compound may have precipitated on removal from water bath): 5120 µg/mL
solubility thermodynamic at 7 days ([8]; thermodynamic from solid, Equilibrium solubility, Propylene glycol): > 255000 µg/mL
solubility thermodynamic at 3 days ([8]; saline or isotonic, thermodynamic from solid, Equilibrium solubility, PSS (physiological salt solution), equilibration 3 days): 80.2 µg/mL
solubility thermodynamic at 3 days ([8]; saline or isotonic, thermodynamic from solid, Equilibrium solubility, PSS + 0.1% DMSO, equilibration 3 days): 108 µg/mL
solubility thermodynamic at 3 days ([8]; saline or isotonic, thermodynamic from solid, Equilibrium solubility, PSS + 1% DMSO, equilibration 3 days): 108 µg/mL
solubility thermodynamic at 3 days ([8]; water, thermodynamic from solid, Equilibrium solubility, Deionized Water, equilibration 3 days): > 18000 µg/mL
solubility thermodynamic at 4 days ([8]; water, thermodynamic from solid, Equilibrium solubility, Deionized Water, equilibration 4 days): > 7000 µg/mL
SMILES: C=C(C)[C@@H]1CC[C@]2(C(=O)O)CC[C@]3(C)[C@H](CC[C@@H]4[C@@]5(C)CC[C@H](OC(=O)CC(C)(C)C(=O)O)C(C)(C)[C@@H]5CC[C@]43C)[C@@H]12 [DSB-(NmG)2, di-(N-methyl-D-glucamine) salt of 3-O-(3′,3′-dimethylsuccinyl) betulinic acid]
implant p24 ([5]; 100 mg/kg/day, twice-daily oral gavage): 69 pg p24 per 10^6 cells
HIV-1 RNA reduction versus untreated mice [5, 9]: 97%
implant p24 [5, 9]: 14 pg p24 per 10^6 cells
MHC-I expression on CD4+CD8+ thymocytes ([5]; highest dosage level (150 mg/kg/day), untreated 530): 250 mean fluorescence intensity
p24 reduction versus untreated mice ([5]; highest dosage level (150 mg/kg/day, started at 300), twice-daily oral gavage, 22 days, Thy/Liv implant): 99%
antiviral activity against NL4-3 (in words) [5]: potent, dose-dependent antiviral activity; also recorded: potent in vivo inhibitor of HIV-1 replication
antiviral activity against NL4-3 (in words) ([5]; listed as DSG-(NmG)2): potent in vivo inhibitor of HIV-1 replication
solubility thermodynamic at 3 days ([8]; aqueous buffer, thermodynamic from solid, Equilibrium solubility, 1% DMSO in HERG Buffer, equilibration 3 days): 87.1 µg/mL
solubility thermodynamic at 3 days ([8]; aqueous buffer, thermodynamic from solid, Equilibrium solubility, HERG Buffer, equilibration 3 days): 17.8 µg/mL

SMILES: Nc1ccn([C@@H]2CS[C@H](CO)O2)c(=O)n1 [Group 3TC, lamivudine, reference compound]
HIV-1 RNA reduction versus untreated mice [5, 10]: 96%
thymocyte viability (live thymocytes) [5, 10]: 71%
p24 reduction versus untreated mice ([5]; once-daily oral gavage at 100 mg/kg/day (positive control)): 97%
implant p24 [5, 10]: 35 pg p24 per 10^6 cells

SMILES: CC(C)C1CCC2(C(=O)O)CCC3(C)C(CCC4C5(C)CCC(OC(=O)CC(C)(C)C(=O)O)C(C)(C)C5CCC43C)C12 (stereo not shown) [dihydrobetulinic acid analog]
T.I. [1]: more than 400,000

SMILES: CC(C)[C@@H]1CC[C@]2(C(=O)O)CC[C@]3(C)C(CCC4[C@@]5(C)CC[C@H](O)C(C)(C)C5CC[C@]43C)C12 (stereo partly shown) [dihydrobetulinic acid]
therapeutic index (T.I.) [1]: 14
EC50 ([1]; unit inferred, read-out: EC50, anti-HIV activity): 0.9 µM

SMILES: CC(=O)[C@@H]1CC[C@]2(C(=O)O)CC[C@]3(C)[C@H](CC[C@@H]4[C@@]5(C)CC[C@H](O)C(C)(C)[C@@H]5CC[C@]43C)[C@@H]12 [platanic acid]
therapeutic index (T.I.) [1]: 14
EC50 ([1]; read-out: EC50, inhibitory activity against HIV-1 replication): 6.5 µM
